Data reported in patent EP2272817A1, “PAI-1 INHIBITOR” (Institute of Medicinal Molecular Design, Inc., priority 2008, dated 2009).

Biological target: recombinant human PAI-1 (Homo sapiens, UniProt P05121)
Assay: Test Example 2: Human PAI-1 Inhibitory Activity (pH 7.4 HEPES buffer, 10 minutes incubation with two-chain tPA)
Assay type: biochemical
Parameters: purchased Molecular Innovations, Inc
Conditions: read-out: Inhibition Rate of PAI-1 Activity (%)
Procedure: 0.1 M HEPES, 0.1 M NaCl. 1 mM EDTA. 0.1 % Polyethylene glycol 8,000 (Hampton Research Corporation),
2 mM Dimethyldecylphoshine oxide [Apo-10] (Fluka Corporation)

Chain of recombinant human PAI-1 (P05121 24-402): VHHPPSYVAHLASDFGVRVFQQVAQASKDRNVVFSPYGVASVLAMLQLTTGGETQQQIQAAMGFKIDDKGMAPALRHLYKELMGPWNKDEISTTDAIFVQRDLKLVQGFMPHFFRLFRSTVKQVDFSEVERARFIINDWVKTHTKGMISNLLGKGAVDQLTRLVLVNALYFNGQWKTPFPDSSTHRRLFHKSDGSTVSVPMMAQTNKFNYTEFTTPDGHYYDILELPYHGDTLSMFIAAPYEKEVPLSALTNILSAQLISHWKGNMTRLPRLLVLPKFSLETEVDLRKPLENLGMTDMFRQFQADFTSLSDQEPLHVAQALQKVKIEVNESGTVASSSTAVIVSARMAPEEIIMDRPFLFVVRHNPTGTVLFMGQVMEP

Row | inhibition at 0.1 µM | inhibition at 0.3 µM | inhibition at 1 µM | inhibition at 3 µM | Compound
1 | 0% | 1% | 12% | 50% | COc1ccc(-c2ccc(OCC(=O)O)c(Oc3ccc(C(C)(C)C)cc3)c2)cc1 [Compound 445]
2 | 13% | 26% | 91% | > 99% | CC(C)(C)c1ccc(Oc2cc(-c3cccc(OC(F)(F)F)c3)ccc2CCC(=O)O)cc1 [Compound 504]
3 | 0% | 0% | 72% | 97% | CCCCC(Oc1cc(-c2ccc(OC(F)(F)F)cc2)ccc1OCCCCc1ccccc1)C(=O)O (stereo not drawn) [Compound 306]
4 | 0% | 11% | 77% | 97% | CCCCC(Oc1ccc(-c2ccc(OC(F)(F)F)cc2)cc1OCCCCc1ccccc1)C(=O)O (stereo not drawn) [Compound 311]
5 | 1% | 4% | 83% | > 99% | CC(C)(C)c1ccc(Oc2cc(-c3ccc(OC(F)(F)F)cc3)ccc2NCC(=O)O)cc1 [Compound 442]
6 | 4% | 15% | 38% | 86% | O=C(O)CCCCCCCCOc1ccc(-c2ccc(OC(F)(F)F)cc2)cc1N(CCCCc1ccccc1)C(=O)C(=O)O [Compound 646]
7 | 18% | 41% | 96% | 98% | CCCCc1ccc(Oc2cc(-c3ccc(OC(F)(F)F)cc3)ccc2CCC(=O)O)cc1 [Compound 512]
8 | 4% | 9% | 85% | > 99% | Cc1cc(C)cc(-c2ccc(/C=C/C(=O)O)c(Oc3ccc(C(C)(C)C)cc3)c2)c1 [Compound 496]
9 | 6% | 12% | 91% | 87% | CC(C)[C@@H]1CC[C@@H](C)C[C@H]1Oc1ccc(-c2ccc(OC(F)(F)F)cc2)cc1N(CCCCc1ccccc1)C(=O)C(=O)O [Compound 639]
10 | 18% | 36% | 92% | 94% | CCCCN(CC(=O)O)c1cc(-c2ccc(OC(F)(F)F)cc2)ccc1Oc1ccc(C(C)(C)C)cc1 [Compound 428]
11 | 17% | 54% | > 99% |  | CCCCCCCOc1cc(-c2ccc(OC(F)(F)F)cc2)cc(OCCCCCCC)c1OCC(=O)O [Compound 425]
12 | 14% | 16% | 79% | 94% | CCCCC(Oc1cc(-c2cccc(C)c2)ccc1Oc1ccc(C(C)(C)C)cc1)C(=O)O (stereo not drawn) [Compound 317]
13 | 6% | 10% | 66% | > 99% | CC(C)c1ccccc1Oc1cc(-c2ccc(OC(F)(F)F)cc2)ccc1CCC(=O)O [Compound 491]
14 | 0% | 3% | 96% | > 99% | CCCCCOc1ccc(-c2ccc(OCC(=O)O)c(Oc3ccc(C(C)(C)C)cc3)c2)cc1 [Compound 440]
15 | 11% | 11% | 39% | 61% | O=C(O)CCCCCCOc1ccc(-c2ccc(OC(F)(F)F)cc2)cc1N(CCCCc1ccccc1)C(=O)C(=O)O [Compound 633]
16 | 28% | 34% | > 99% | > 99% | CCCCCCCCCCN(C(=O)C(=O)O)c1ccc(-c2ccc(OC(F)(F)F)cc2)cc1 [Compound 669]
17 | 10% | 29% | 95% | 97% | CCCCC(Oc1cc(Oc2ccc(C(C)(C)C)cc2)cc(-c2ccc(OC(F)(F)F)cc2)c1)C(=O)O (stereo not drawn) [Compound 426]
18 | 8% | 64% | 98% | > 99% | CC(C)(C)c1ccc(Oc2cc(-c3ccc(C(C)(C)C)cc3)ccc2/C=C/C(=O)O)cc1 [Compound 495]
19 | 9% | 53% | 95% | 95% | CCCCC(C(=O)O)N(Cc1ccc(C(C)(C)C)cc1)c1cccc(-c2ccc(OC(F)(F)F)cc2)c1 (stereo not drawn) [Compound 641]
20 | 15% | 20% | 99% | > 99% | CCCCCN(C(=O)C(=O)O)c1cc(-c2ccc(OC(F)(F)F)cc2)ccc1OCCCOc1ccccc1 [Compound 657]
21 | 2% | 6% | 73% | > 99% | CC(C)(C)c1ccc(Oc2cc(-c3ccccc3OC(F)(F)F)ccc2CCC(=O)O)cc1 [Compound 467]
22 | 1% | 15% | 97% | > 99% | CCCCCCOc1cc(-c2ccc(OC(F)(F)F)cc2)ccc1OC(CCCCCC)C(=O)O (stereo not drawn) [Compound 430]
23 | 15% | 14% | 77% | 98% | Cc1cc(C)cc(Oc2cc(-c3ccc(C(C)(C)C)cc3)ccc2CCC(=O)O)c1 [Compound 499]
24 | 15% | 14% | 71% | > 99% | CCCCOc1cccc(Oc2cc(-c3ccc(OC(F)(F)F)cc3)ccc2CCC(=O)O)c1 [Compound 472]

Row | Compound | inhibition at 0.1 µM | inhibition at 0.3 µM | inhibition at 1 µM | inhibition at 3 µM
25 | CCCCC(Oc1cc(-c2ccc(OC(F)(F)F)cc2)ccc1Oc1ccccc1)C(=O)O (stereo not drawn) [Compound 307] | 0% | 1% | 22% | 91%
26 | CC(C)c1ccc(Oc2cc(-c3ccc(OC(F)(F)F)cc3)ccc2OCC(=O)O)cc1 [Compound 333] | 4% | 10% | 28% | 91%
27 | CC(C)(C)c1cccc(Oc2cc(-c3ccc(OC(F)(F)F)cc3)ccc2CCC(=O)O)c1 [Compound 336] | 0% | 5% | 45% | > 99%
28 | CC(C)(C)Oc1ccc(-c2ccc(OC(F)(F)F)cc2)cc1N(CCCCc1ccccc1)C(=O)C(=O)O [Compound 373] | 0% | 0% | 28% | 90%
29 | Cc1cccc(-c2ccc(OCC(=O)O)c(Oc3ccc(C(C)(C)C)cc3)c2)c1 [Compound 319] | 0% | 9% | 17% | 70%
30 | CCCCC(Oc1cc(Oc2ccc(OC(F)(F)F)cc2)ccc1OCCCCc1ccccc1)C(=O)O (stereo not drawn) [Compound 309] | 1% | 17% | 66% | 91%
31 | CCCCCCCCCOc1cc(N(CCCCc2ccccc2)C(=O)C(=O)O)ccc1-c1ccc(OC(F)(F)F)cc1 [Compound 389] | 65% | 97% | > 99% | > 99%
